According to publication PMC10945559, “Forgotten Natural Products: Semisynthetic Development of Blasticidin S As an Antibiotic Lead” (ACS Medicinal Chemistry Letters, 2024):
In brackets after ≈: the same amount, converted by molar mass. Where two headings read alike, the source gives them in different places.

Legend:
[1] = test system: methicillin-resistant S. aureus (MRSA) ATCC 43300; assay: Broth microdilution antibacterial assay; format: cell-based, Staphylococcus aureus; settings: for Selectivity index (CC50/IC50): MRC-5 CC50 / MRSA IC50; for IC50 / MIC: Staphylococcus aureus; for IC50: average of two biological replicates ± S.D., read-out: IC50
Procedure: (§1) Antibacterial Assay Procedure
(§2) Broth Microdilution Assays
(§3) Media and solutions were autoclaved or sterile filtered prior to use and manipulations were carried out in a laminar flow hood. Antibacterial testing was performed in polypropylene 96 -well flat bottom plates. The minimal inhibitory concentration of blasticidin S ( 1) hydrochloride, P10 (2), and derivatives 15–22 were assessed against Staphylococcus aureus ΔNorA, S. aureus 8810, methicillin-resistant S. aureus (MRSA) ATCC 43300, Enterococcus faecalis ATCC 29212, vancomycin-resistant Enterococcus, Klebsiella pneumoniae ATCC 29665, Pseudomonas aeruginosa, and Acinetobacter baumannii ATCC 17978 using serial dilutions. Doxycycline (Gold Bio) as a positive control and the vehicle as a negative control. Stock solutions of each compound were prepared at 5.12 mg/mL in 50% DMSO/water and serially diluted in 50% DMSO/water to create master plates. From the master plates, 10 μL of each dilution was applied to test plates using a Bravo automated liquid transfer system (Agilent). Bacteria previously grown overnight (37 °C, 120 – 200 RPM), in LB broth were diluted to an OD600 of 0.0 5 in cation-adjusted Mueller-Hinton broth, grown to an OD600 of ~0.5, and diluted to an OD600 of 0.004 in cation-adjusted Mueller-Hinton broth. These diluted cultures were applied to the test plates (190 μL per test well) resulting in final concentrations of the test compounds of 256–2 μg/mL. Growth controls (wells with inoculated media but no vehicle or test compounds) were included to assess any potential toxicity from the vehicle. The plates were incubated at 37 °C for 16–18 h, except for VRE and E. faecalis, which were incubated at 37 °C for 24 h. Inhibition was determined by measuring the optical density at 600 nm (OD600) with a Cytation 3 plate reader (BioTek). The optical density measurements were normalized to the positive and negative controls and the vehicle and growth controls were compared and found to be indistinguishable, indicating no toxicity from the vehicle used. The MIC was the lowest concentration that inhibited >90% of growth. Two biological replicates were performed in duplicate. MIC values are reported […]
(§4) as a range from biological replicates. Inhibition curves were generated using Prism (GraphPad).
(§5) The IC50 values reported in Table 2 are the average of the two biological replicates ± standard […]
(§6) Cytotoxicity Assay Procedure
(§7) Human lung fibroblast cells, MRC -5 (CCL-171), were cultured at 37℃ with 5% CO2 and were plated at 5000 cells/well in a 96 -well plate. Compounds 1, 2, and 15-22 were initially prepared at concentrations of 5.12 mg/mL in a vehicle of 50% DMSO. Dilutions of the compounds (4 – 512 μg/mL) were then prepared in growth medium containing Dulbecco’s modified Eagle’s medium (DMEM) with high glucose, L -glutamine, and sodium pyruvate supplemented with 10% fetal bovine serum (FBS), 1% non -essential amino acids, and 0.1% gentamicin sulfate, and 25mM HEPES. The vehicle (50% DMSO) was also prepared via the sa me dilution series to serve as a control. Growth media was removed from the cells and replaced with the same volume of each compound dilution. Cells were incubated for 24 h , after which CellTiter 96® AQueous One Solution Reagent was added to each well as recommended by the manufacturer’s protocol (Promega CellTiter 96 AQueous One Solution Cell Proliferation Assay) and further incubated for 4 h. After incubation, absorbance was measured at 490 nm on an Infinite M plex multimode microplate reader with i -control Tecan software. Viability was calculated by subtracting media only absorbance values and normalizing to the vehicle control at each concentration. The presented data is one assay performed in triplicate that is representative of multiple trials. Data for the 256 and 512 μg/mL concentrations were removed from analysis due to vehicle toxicity […]
(§8) CC50 concentrations were determined via the ED50 Plus v1.0 software (https://archive.org/details/ed50v10_zip).

S. aureus 8810 = assay: Broth microdilution antibacterial assay; format: cell-based, Staphylococcus aureus; settings: for Selectivity index (CC50/IC50): MRC-5 CC50 / S. aureus IC50; for IC50 / MIC: Staphylococcus aureus, 8810; for IC50: average of two biological replicates ± S.D., read-out: IC50
Procedure: as §1, §2, §3, §4, §5, §6, §7, §8

in vitro = format: cell-based, human; settings: human; MRC-5 (lung fibroblast); 24 h; one biological replicate (n = 3); read-out: CC50 for human cells
Procedure: as §4, §5, §6, §7, §8
(§9) Figure S41. The effect of compounds on cell viability. The lines represent non -linear regression curves, and error bars represent means ± […]
(§10) SD (n=3). […]

[2] = test system: MRC-5 lung fibroblast cells; assay: in vitro; format: cell-based, human; settings: average of SI (CC50/IC50) over the bacteria tested
Procedure: as §4, §5, §6, §7, §8, §9, §10

[3] = test system: Enterococcus faecalis ATCC 29212; assay: Broth microdilution antibacterial assay; format: cell-based; settings: for MIC / IC50: Enterococcus faecalis, ATCC29212; for IC50: average of two biological replicates ± S.D. (18: one biological replicate), read-out: IC50; for Selectivity index (CC50/IC50): MRC-5 CC50 / E. faecalis IC50
Procedure: as §1, §2, §3, §4, §5, §6, §7, §8

[4] = test system: Acinetobacter baumannii ATCC 17978; assay: Broth microdilution antibacterial assay; format: cell-based; settings: for IC50 / MIC: Acinetobacter baumannii, ATCC17978, A. baumannii; for IC50: average of two biological replicates ± S.D., read-out: IC50; for MIC: lowest concentration inhibiting >90% of growth, range from biological replicates, read-out: MIC; for Selectivity index (CC50/IC50): MRC-5 CC50 / A. baumannii IC50
Procedure: as §1, §2, §3, §4, §5, §6, §7, §8

[5] = test system: Staphylococcus aureus ΔNorA; assay: Broth microdilution antibacterial assay; format: cell-based; settings: for Selectivity index (CC50/IC50): MRC-5 CC50 / S. aureus ΔNorA IC50; for IC50 / MIC: Staphylococcus aureus
Procedure: as §1, §2, §3, §4, §5, §6, §7, §8

[6] = test system: vancomycin-resistant Enterococcus (VRE); assay: Broth microdilution antibacterial assay; format: cell-based; settings: for MIC / IC50: Enterococcus, VRE; for IC50: average of two biological replicates ± S.D., read-out: IC50; for Selectivity index (CC50/IC50): MRC-5 CC50 / VRE IC50
Procedure: as §1, §2, §3, §4, §5, §6, §7, §8

Pseudomonas aeruginosa = assay: Broth microdilution antibacterial assay; format: cell-based; settings: for Selectivity index (CC50/IC50): MRC-5 CC50 / P. aeruginosa IC50; for IC50 / MIC: Pseudomonas aeruginosa; for IC50: average of two biological replicates ± S.D., read-out: IC50
Procedure: as §1, §2, §3, §4, §5, §6, §7, §8

[7] = test system: Klebsiella pneumoniae ATCC 29665; assay: Broth microdilution antibacterial assay; format: cell-based; settings: for IC50 / MIC: Klebsiella pneumoniae, ATCC29665, K. pneumoniae; for IC50: average of two biological replicates ± S.D., read-out: IC50; for MIC: lowest concentration inhibiting >90% of growth, range from biological replicates, read-out: MIC; for Selectivity index (CC50/IC50): MRC-5 CC50 / K. pneumoniae IC50
Procedure: as §1, §2, §3, §4, §5, §6, §7, §8

[8] = MRSA, lowest concentration inhibiting >90% of growth, range from biological replicates, read-out: MIC
[9] = average MIC, Table S3, read-out: Average Activity against MRSA
[10] = S. aureus, lowest concentration inhibiting >90% of growth, range from biological replicates, read-out: MIC
[11] = average MIC, Table S3, read-out: Average Activity against S. aureus
[12] = E. faecalis, 24 h, lowest concentration inhibiting >90% of growth, range from biological replicates, read-out: MIC
[13] = average MIC, Table S3, read-out: Average Activity against E. faecalis
[14] = average MIC, Table S3, read-out: Average Activity against VRE
[15] = 24 h, lowest concentration inhibiting >90% of growth, range from biological replicates, read-out: MIC

SMILES | Selectivity index (CC50/IC50) [1] | IC50 ([1]; MRSA) | MIC [1, 8] | MIC [1, 9] | Selectivity index (CC50/IC50) (S. aureus 8810) | IC50 (S. aureus 8810; S. aureus) | MIC (S. aureus 8810; [10]) | MIC (S. aureus 8810; [11]) | CC50 at 24 h (in vitro) | MIC [3, 12] | IC50 ([3]; E. faecalis) | MIC [3, 13] | Selectivity index (CC50/IC50) [3] | IC50 [4] | MIC [4] | Selectivity index (CC50/IC50) [4] | Selectivity index (CC50/IC50) [5] | IC50 [5] | MIC [5] | MIC [6, 14] | other results
CN(CC[C@H](N)CC(=O)N[C@H]1C=C[C@H](n2ccc(N)nc2=O)O[C@@H]1C(N)=O)C(=N)N [Compound 2, P10] | 0.8 | 7 ± 1 µg/mL (≈ 16.6 µM) | 32 µg/mL (≈ 75.9 µM) | 32 µg/mL (≈ 75.9 µM) | 1.3 | 4.7 ± 1 µg/mL (≈ 11.2 µM) | 32 µg/mL (≈ 75.9 µM) | 32 µg/mL (≈ 75.9 µM) | 5.9 µg/mL (≈ 14 µM) | 16 to 32 µg/mL (≈ 38 to 75.9 µM) | 5.1 ± 4.3 µg/mL (≈ 12.1 µM) | 16 µg/mL (≈ 38 µM) | 1.2 | 4.5 ± 0.4 µg/mL (≈ 10.7 µM) | 16 µg/mL (≈ 38 µM) | 1.3 | 0.4 | 14 ± 0.3 µg/mL (≈ 33.2 µM) | 64 to 128 µg/mL (≈ 152 to 304 µM) | 64 µg/mL (≈ 152 µM) | average selectivity index [2]: 0.8; MIC [6, 15]: 64 µg/mL (≈ 152 µM); IC50 [6]: 15 ± 8.6 µg/mL (≈ 35.6 µM); Selectivity index (CC50/IC50) [6]: 0.4; Selectivity index (CC50/IC50) (Pseudomonas aeruginosa): 0.4; IC50 (Pseudomonas aeruginosa; P. aeruginosa): 14.6 ± 1.5 µg/mL (≈ 34.6 µM); MIC (Pseudomonas aeruginosa; P. aeruginosa, lowest concentration inhibiting >90% of growth, range from biological replicates, read-out: MIC): 64 µg/mL (≈ 152 µM); IC50 [7]: 7.6 ± 1.3 µg/mL (≈ 18 µM); MIC [7]: 32 µg/mL (≈ 75.9 µM); Selectivity index (CC50/IC50) [7]: 0.8
CNC(=O)[C@H]1O[C@@H](n2ccc(N)nc2=O)C=C[C@@H]1NC(=O)C[C@@H](N)CCN(C)C(=N)N [Compound 15, Methyl amide] | 4.0 | 13.3 ± 3.3 µg/mL (≈ 30.5 µM) | 32 to 64 µg/mL (≈ 73.5 to 147 µM) | 48 µg/mL (≈ 110 µM) | 8.9 | 5.9 ± 1.2 µg/mL (≈ 13.5 µM) | 32 µg/mL (≈ 73.5 µM) | 32 µg/mL (≈ 73.5 µM) | 52.8 µg/mL (≈ 121 µM) | 16 to 32 µg/mL (≈ 36.7 to 73.5 µM) | 13.2 ± 3.6 µg/mL (≈ 30.3 µM) | 32 µg/mL (≈ 73.5 µM) | 4.0 | 18.3 ± 5.3 µg/mL (≈ 42 µM) | 64 µg/mL (≈ 147 µM) | 2.9 | 2.5 | 21.1 ± 0.4 µg/mL (≈ 48.5 µM) | 128 µg/mL (≈ 294 µM) | 32 µg/mL (≈ 73.5 µM) | MIC [6, 15]: 32 µg/mL (≈ 73.5 µM); IC50 [6]: 13.5 ± 3.6 µg/mL (≈ 31 µM); Selectivity index (CC50/IC50) [6]: 3.9; Selectivity index (CC50/IC50) (Pseudomonas aeruginosa): 2.6; MIC (Pseudomonas aeruginosa): 64 to 128 µg/mL (≈ 147 to 294 µM); IC50 (Pseudomonas aeruginosa; P. aeruginosa): 20.2 ± 3.4 µg/mL (≈ 46.4 µM); IC50 [7]: 26.4 ± 4.1 µg/mL (≈ 60.6 µM); MIC [7]: 64 µg/mL (≈ 147 µM); Selectivity index (CC50/IC50) [7]: 2.0
